{"source": "patent US10544154B2", "about": "“Opioid receptor antagonist prodrugs” (Nirsum Laboratories, Inc., priority 2017, dated 2020)", "key": {"[1]": {"assay": "Plasma stability, human plasma (HPLC-MS)", "type": "in vitro ADME", "conditions": "2 μM, 37° C.", "method": "(§1) Plasma stability determination of the test compounds in rat, dog, cynomolgus monkey and human plasma is performed using HPLC-MS. For rat, incubations are carried out in 96-well polypropylene plates in 5 aliquots of 70 μL each (one for each time point). […] Five time points are analyzed (0, 15, 120, 480 and 1440 min). […] All incubations are performed in duplicates. The samples are analyzed by HPLC-MS. The percentage of parent compound remaining after incubation in plasma is determined."}, "[2]": {"assay": "Plasma stability, cynomolgus monkey plasma (HPLC-MS)", "type": "in vitro ADME", "conditions": "2 μM, 37° C., 0 min", "method": "as §1"}, "[3]": {"assay": "Liver S9 fraction stability, cynomolgus monkey", "type": "in vitro ADME", "conditions": "2 μM, 1.0 mg/ml S9 protein, 37° C.", "method": "(§2) Liver S9 fraction stability determination of the test compounds in dog, cynomolgus monkey and human is performed using HPLC-MS. Test compound (2 μM, 0.1% DMSO, 1% Methanol final concentration) was assessed for stability in a 50 μl phosphate buffer containing 1.0 mg/ml S9 protein from each of the three species and 5 mM D-saccharic acid-1, 4-lactone. Samples were incubated at 37° C. for 60 minutes and the % compound remaining was assessed."}, "[4]": {"assay": "Plasma stability, dog plasma (HPLC-MS)", "type": "in vitro ADME", "conditions": "2 μM, 37° C.", "method": "Plasma stability determination of the test compounds in rat, dog, cynomolgus monkey and human plasma is performed using HPLC-MS. For rat, incubations are carried out in 96-well polypropylene plates in 5 aliquots of 70 μL each (one for each time point). […] Five time points are analyzed (0, 15, 120, 480 and 1440 min). For dog, monkey and human, test compounds (2 μM, final solvent concentration 1%) were also incubated at 37° C. and analyzed at five time points (0, 10, 30, 60 and 120 min). All incubations are performed in duplicates. The samples are analyzed by HPLC-MS. The percentage of parent compound remaining after incubation in plasma is determined."}, "[5]": {"assay": "Liver S9 fraction stability, dog", "type": "in vitro ADME", "conditions": "2 μM, 1.0 mg/ml S9 protein, 37° C.", "method": "as §2"}, "[6]": {"assay": "Plasma stability, rat plasma (HPLC-MS)", "type": "in vitro ADME", "conditions": "10 μM, 37° C.", "summary_of_the_method": "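Read-out: percent parent compound remaining, by HPLC-MS, duplicate incubations. Dog/monkey/human: 2 μM test compound, 1% solvent final, 37 °C, time points 0, 10, 30, 60, 120 min. Rat: time points 0, 15, 120, 480, 1440 min.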"}, "[7]": {"assay": "Liver S9 fraction stability, human", "type": "in vitro ADME", "conditions": "2 μM, 1.0 mg/ml S9 protein, 37° C.", "method": "as §2"}, "[8]": {"assay": "Clinical observations for dogs in pharmacokinetic studies", "type": "in vivo, Beagle dogs", "conditions": "48 mg/kg DeepIM", "summary_of_the_method": "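Dogs sedated with propofol 6 mg/kg IV, then given deep IM injection (≥2.5 cm into quadriceps or biceps femoris) of 400 mg base equivalents/ml in sesame oil + 1% benzyl alcohol, unless otherwise specified; vehicle injected contralaterally. Dose volume set by dosing-day body weight; weights recorded weekly.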"}}}
{"smiles": "C=C1CC[C@@]2(O)C3Cc4ccc(OCOC(=O)OCCCCCCCCCCCC)c5c4[C@@]2(CCN3CC2CC2)[C@H]1O5", "note": "[Compound 24, (((4aS,7aS,12bS)-3-(cyclopropylmethyl)-4a-hydroxy-7-methylene-2,3,4,4a,5,6,7,7a-octahydro-1H-4,12-methanobenzofuro[3,2-e]isoquinolin-9-yl)oxy)methyl dodecyl carbonate]", "values": [{"measurement": "% remaining at time point in minutes, 0 min", "setting": "[1]; 0 min", "result": 100, "unit": "%"}, {"measurement": "% remaining at time point in minutes, 15 min", "setting": "[1]; 15 min", "result": 94, "unit": "%"}, {"measurement": "% remaining at time point in minutes, 0 min", "setting": "[2]", "result": 100, "unit": "%"}, {"measurement": "Liver S9 Fraction Stability, % remaining at 60 minutes, Monkey", "setting": "[3]", "result": 3, "unit": "%"}, {"measurement": "% remaining at time point in minutes, 0 min", "setting": "[4]", "result": 100, "unit": "%"}, {"measurement": "Liver S9 Fraction Stability, % remaining at 60 minutes, Dog", "setting": "[5]", "result": 3.6, "unit": "%"}, {"measurement": "% remaining at time point in minutes, 0 min", "setting": "[6]; 0 min", "result": 100, "unit": "%"}, {"measurement": "% remaining at time point in minutes, 15 min", "setting": "[6]; 15 min", "result": 32, "unit": "%"}, {"measurement": "% remaining at time point in minutes, 480 min", "setting": "[6]; 480 min", "result": 8.2, "unit": "%"}, {"measurement": "% remaining at time point in minutes, 1440 min", "setting": "[6]; 1440 min", "result": 3, "unit": "%"}, {"measurement": "Liver S9 Fraction Stability, % remaining at 60 minutes, Human", "setting": "[7]", "result": 3.5, "unit": "%"}, {"measurement": "BT", "setting": "[8]; dog D1501, 24 hr", "result": 38.8}, {"measurement": "BT", "setting": "[8]; dog D1501, 96 hr", "result": "limb/BT: 39.2"}, {"measurement": "BT", "setting": "[8]; dog D1501, 120 hr", "result": 39.2}, {"measurement": "BT", "setting": "[8]; dog D1501, 144 hr", "result": 39.6}, {"measurement": "BT", "setting": "[8]; dog D1501, 192 hr", "result": "calf/BT: 39.0"}, {"measurement": "BT", "setting": "[8]; dog D1501, 216 hr", "result": "8 * 5 cm/BT: 39.0"}, {"measurement": "BT", "setting": "[8]; dog D1501, 240 hr", "result": "8 * 5 cm/BT: 39.0"}, {"measurement": "BT", "setting": "[8]; dog D1501, 264 hr", "result": "6 * 5 cm/BT: 38.9"}, {"measurement": "BT", "setting": "[8]; dog D1501, 288 hr", "result": "6 * 5 cm/BT: 38.9"}, {"measurement": "BT", "setting": "[8]; dog D1501, […]", "result": 39.6}, {"measurement": "BT", "setting": "[8]; dog D1502, 96 hr", "result": "groin/red/BT: 38.3"}, {"measurement": "BT", "setting": "[8]; dog D1502, 120 hr", "result": "groin/red/BT: 38.7"}, {"measurement": "BT", "setting": "[8]; dog D1502, 144 hr", "result": "groin/red/BT: 38.3"}, {"measurement": "BT", "setting": "[8]; dog D1502, 192 hr", "result": "groin/red/BT: 38.5"}, {"measurement": "BT", "setting": "[8]; dog D1502, 216 hr", "result": "groin/red/BT: 38.4"}, {"measurement": "BT", "setting": "[8]; dog D1502, 240 hr", "result": "leg/red/BT: 38.9"}, {"measurement": "BT", "setting": "[8]; dog D1502, 264 hr", "result": "leg/red/BT: 38.3"}, {"measurement": "BT", "setting": "[8]; dog D1502, 288 hr", "result": "leg/red/BT: 38.5"}, {"measurement": "BT", "setting": "[8]; dog D1502, […]", "result": "groin/red/BT: 38.4"}, {"measurement": "BT", "setting": "[8]; third dog (head prints D1502), 144 hr", "result": "8 * 8 cm/BT: 39.5"}, {"measurement": "BT", "setting": "[8]; third dog (head prints D1502), 192 hr", "result": "8 * 8 cm/BT: 38.0"}, {"measurement": "BT", "setting": "[8]; third dog (head prints D1502), 216 hr", "result": "8 * 8 cm/BT: 38.8"}, {"measurement": "BT", "setting": "[8]; third dog (head prints D1502), 240 hr", "result": "8 * 8 cm/BT: 39.2"}, {"measurement": "BT", "setting": "[8]; third dog (head prints D1502), 264 hr", "result": "8 * 8 cm/BT: 38.9"}, {"measurement": "BT", "setting": "[8]; third dog (head prints D1502), 288 hr", "result": "8 * 8 cm/BT: 38.8"}, {"measurement": "BT", "setting": "[8]; third dog (head prints D1502), […]", "result": "8 * 8 cm/BT: 39.3"}]}
